Test [1] is described as follows: off-target signal loss in HeLa-CEM21 co-culture – HeLa F-luc CTL cells, cherry-picked, counter-screen for HIV-1 Env fusion inhibitor project, dose response (AID 652040).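 Further: potency for signal decrease marking cytotoxic or nonspecific inhibition.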 The class given is functional, cell-based. For orientation: The purpose of a counterscreen is to sort out artefacts and off-target activity.
Test [2] is described as follows: CEM21 lymphoblast cell cytotoxicity, dose response, cytotoxicity control for viral fusion inhibitor project, CellTiter-Glo luminescence, cherry-picked (AID 652042).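 Further: potency for signal decrease meaning cytotoxicity.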 The class given is functional, cell-based. A general note: In ATP-based viability assays light output follows the ATP content of the culture.
A short description of test [3]: inhibitors of HIV Env-driven cell fusion, dose response, cherry-pick (AID 652057). Type of test: functional, cell-based.
Test [4] can be described thus: inhibitors of clade B AD8 Env fusion, dose response, cell-based, cherry-pick (AID 652062).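 Further: luciferase signal from cell-cell fusion driven by HIV-1 clade B AD8 Env; potency is for inhibitors of fusion seen as a drop in luminescence.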 The class given is functional.
The nature of test [5]: ZM109 Env clade C HIV-1 fusion inhibitors, dose response, HeLa effector, CEM target cells, luciferase, cherry-pick (AID 652058). The class given is functional, cell-based.
The target in another test is Paired box protein Pax-8 (Homo sapiens, UniProt Q06710). Nature of the test: inhibitors of PAX8-driven TPO luciferase reporter, dose response, RMG-I cells, cherry-pick (AID 687027).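 Further: luciferase reporter driven by Pax8 target thyroperoxidase promoter measured by SteadyGlo luminescence.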 Type of test: functional, cell-based. Background: In a reporter assay the amount or activity of a reporter protein is the signal.
Sequence of Paired box protein Pax-8 (Q06710 whole entry): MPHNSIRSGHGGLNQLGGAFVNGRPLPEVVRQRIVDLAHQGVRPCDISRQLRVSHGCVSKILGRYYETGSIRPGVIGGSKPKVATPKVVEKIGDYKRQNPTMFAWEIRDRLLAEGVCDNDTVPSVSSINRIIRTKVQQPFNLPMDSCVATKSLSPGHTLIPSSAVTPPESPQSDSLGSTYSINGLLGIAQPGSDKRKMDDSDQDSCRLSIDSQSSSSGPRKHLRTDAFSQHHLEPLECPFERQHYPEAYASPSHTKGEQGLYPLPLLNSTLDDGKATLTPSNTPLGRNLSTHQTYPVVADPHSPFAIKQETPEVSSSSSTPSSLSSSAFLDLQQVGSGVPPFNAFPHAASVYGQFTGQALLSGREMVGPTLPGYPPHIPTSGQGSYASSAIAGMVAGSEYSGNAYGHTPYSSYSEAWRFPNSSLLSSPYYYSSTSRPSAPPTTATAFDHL
Test [6] deals with Dual specificity tyrosine-phosphorylation-regulated kinase 1A (Rattus norvegicus, UniProt Q63470). Type of test: biochemical, Homo sapiens.
The target in test [7] is Cyclin-dependent kinase 5/CDK5 activator 1 (Homo sapiens, UniProt Q00535). In words: CDK5/p35 kinase inhibitors, dose response, biochemical, cherry-picked samples, set 2 (AID 504545).
Sequence of Cyclin-dependent kinase 5/CDK5 activator 1 (Q00535 whole entry): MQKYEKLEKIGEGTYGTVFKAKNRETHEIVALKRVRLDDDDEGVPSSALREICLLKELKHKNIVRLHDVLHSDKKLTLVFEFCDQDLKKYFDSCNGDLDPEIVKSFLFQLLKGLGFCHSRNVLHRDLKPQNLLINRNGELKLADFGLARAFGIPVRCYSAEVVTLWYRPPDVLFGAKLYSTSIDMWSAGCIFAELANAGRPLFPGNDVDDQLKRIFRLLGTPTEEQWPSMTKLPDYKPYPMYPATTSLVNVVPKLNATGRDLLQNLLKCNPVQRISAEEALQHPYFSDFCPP
Sequence of Cyclin-dependent kinase 5/CDK5 activator 1 (Q15078 whole entry, further chain): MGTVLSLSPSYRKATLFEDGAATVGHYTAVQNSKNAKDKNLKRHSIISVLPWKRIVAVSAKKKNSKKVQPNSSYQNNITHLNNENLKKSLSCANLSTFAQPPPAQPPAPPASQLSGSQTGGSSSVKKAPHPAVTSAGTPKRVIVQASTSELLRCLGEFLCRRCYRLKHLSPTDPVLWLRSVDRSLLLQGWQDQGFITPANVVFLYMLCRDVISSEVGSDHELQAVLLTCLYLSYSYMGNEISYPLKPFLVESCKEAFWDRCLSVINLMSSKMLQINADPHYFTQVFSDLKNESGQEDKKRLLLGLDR
A short description of test [8]: THP-1 cell cytotoxicity, dose response, cytotoxicity control for non-replicating M. tuberculosis project (AID 489025). The class given is functional.
Test [9] can be described thus: Counterscreen for AddAB inhibitors: absorbance-based bacterial cell-based high throughput dose response assay for inhibitors of bacterial viability. [Related pubchem assays (depositor defined):AID435030, AID449728, AID449731, AID488942, AID488955, AID488956]. Type of test: functional.
Another test can be described thus: cells. Type of test: functional.
The target in a further test is T1, Exodeoxyribonuclease V (Escherichia coli (strain K12), UniProt P04993+P07648+P08394).
T1 sequence (P04993 whole entry): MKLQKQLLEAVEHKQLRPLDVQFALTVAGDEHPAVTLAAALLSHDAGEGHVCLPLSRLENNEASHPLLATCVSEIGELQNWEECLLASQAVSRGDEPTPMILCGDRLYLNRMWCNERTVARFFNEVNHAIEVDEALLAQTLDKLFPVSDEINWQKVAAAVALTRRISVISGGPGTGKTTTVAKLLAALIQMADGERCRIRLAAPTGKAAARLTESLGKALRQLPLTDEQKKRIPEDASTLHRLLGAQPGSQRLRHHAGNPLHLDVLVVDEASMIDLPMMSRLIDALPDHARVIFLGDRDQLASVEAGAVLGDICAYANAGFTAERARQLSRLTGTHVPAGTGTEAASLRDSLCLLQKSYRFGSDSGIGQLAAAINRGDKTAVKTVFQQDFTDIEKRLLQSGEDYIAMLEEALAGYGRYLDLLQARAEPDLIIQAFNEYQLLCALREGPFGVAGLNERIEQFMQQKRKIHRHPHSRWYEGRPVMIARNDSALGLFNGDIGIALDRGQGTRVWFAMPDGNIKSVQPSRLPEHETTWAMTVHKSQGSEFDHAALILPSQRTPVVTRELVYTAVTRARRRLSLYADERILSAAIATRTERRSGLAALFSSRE
T1 sequence (P07648 whole entry): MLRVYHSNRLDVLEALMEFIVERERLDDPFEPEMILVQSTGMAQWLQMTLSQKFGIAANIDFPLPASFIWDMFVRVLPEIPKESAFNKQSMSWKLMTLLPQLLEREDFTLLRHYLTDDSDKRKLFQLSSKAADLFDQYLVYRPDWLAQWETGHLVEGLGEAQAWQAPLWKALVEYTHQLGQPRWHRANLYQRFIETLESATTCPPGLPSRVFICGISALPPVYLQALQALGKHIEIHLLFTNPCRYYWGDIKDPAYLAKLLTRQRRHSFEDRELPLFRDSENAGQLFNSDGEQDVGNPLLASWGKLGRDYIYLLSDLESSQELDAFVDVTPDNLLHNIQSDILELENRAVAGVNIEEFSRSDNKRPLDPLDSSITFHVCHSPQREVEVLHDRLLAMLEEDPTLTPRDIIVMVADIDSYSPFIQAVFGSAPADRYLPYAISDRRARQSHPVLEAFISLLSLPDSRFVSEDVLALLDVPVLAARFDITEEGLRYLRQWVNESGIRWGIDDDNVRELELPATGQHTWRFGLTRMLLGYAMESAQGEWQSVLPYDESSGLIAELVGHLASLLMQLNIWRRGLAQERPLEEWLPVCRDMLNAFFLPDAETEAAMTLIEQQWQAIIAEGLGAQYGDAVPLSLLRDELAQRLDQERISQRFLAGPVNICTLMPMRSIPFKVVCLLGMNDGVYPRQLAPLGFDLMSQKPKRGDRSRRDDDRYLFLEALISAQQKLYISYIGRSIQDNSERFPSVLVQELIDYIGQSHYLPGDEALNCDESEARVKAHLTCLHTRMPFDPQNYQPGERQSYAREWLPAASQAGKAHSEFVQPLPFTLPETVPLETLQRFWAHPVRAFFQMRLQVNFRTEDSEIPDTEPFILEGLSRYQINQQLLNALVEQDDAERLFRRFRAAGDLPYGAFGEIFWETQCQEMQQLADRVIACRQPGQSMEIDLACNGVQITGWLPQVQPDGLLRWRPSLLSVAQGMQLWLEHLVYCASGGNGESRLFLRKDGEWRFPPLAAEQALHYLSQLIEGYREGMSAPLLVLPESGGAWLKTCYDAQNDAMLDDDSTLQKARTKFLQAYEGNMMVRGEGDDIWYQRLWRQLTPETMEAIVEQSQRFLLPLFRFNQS
T1 sequence (P08394 whole entry): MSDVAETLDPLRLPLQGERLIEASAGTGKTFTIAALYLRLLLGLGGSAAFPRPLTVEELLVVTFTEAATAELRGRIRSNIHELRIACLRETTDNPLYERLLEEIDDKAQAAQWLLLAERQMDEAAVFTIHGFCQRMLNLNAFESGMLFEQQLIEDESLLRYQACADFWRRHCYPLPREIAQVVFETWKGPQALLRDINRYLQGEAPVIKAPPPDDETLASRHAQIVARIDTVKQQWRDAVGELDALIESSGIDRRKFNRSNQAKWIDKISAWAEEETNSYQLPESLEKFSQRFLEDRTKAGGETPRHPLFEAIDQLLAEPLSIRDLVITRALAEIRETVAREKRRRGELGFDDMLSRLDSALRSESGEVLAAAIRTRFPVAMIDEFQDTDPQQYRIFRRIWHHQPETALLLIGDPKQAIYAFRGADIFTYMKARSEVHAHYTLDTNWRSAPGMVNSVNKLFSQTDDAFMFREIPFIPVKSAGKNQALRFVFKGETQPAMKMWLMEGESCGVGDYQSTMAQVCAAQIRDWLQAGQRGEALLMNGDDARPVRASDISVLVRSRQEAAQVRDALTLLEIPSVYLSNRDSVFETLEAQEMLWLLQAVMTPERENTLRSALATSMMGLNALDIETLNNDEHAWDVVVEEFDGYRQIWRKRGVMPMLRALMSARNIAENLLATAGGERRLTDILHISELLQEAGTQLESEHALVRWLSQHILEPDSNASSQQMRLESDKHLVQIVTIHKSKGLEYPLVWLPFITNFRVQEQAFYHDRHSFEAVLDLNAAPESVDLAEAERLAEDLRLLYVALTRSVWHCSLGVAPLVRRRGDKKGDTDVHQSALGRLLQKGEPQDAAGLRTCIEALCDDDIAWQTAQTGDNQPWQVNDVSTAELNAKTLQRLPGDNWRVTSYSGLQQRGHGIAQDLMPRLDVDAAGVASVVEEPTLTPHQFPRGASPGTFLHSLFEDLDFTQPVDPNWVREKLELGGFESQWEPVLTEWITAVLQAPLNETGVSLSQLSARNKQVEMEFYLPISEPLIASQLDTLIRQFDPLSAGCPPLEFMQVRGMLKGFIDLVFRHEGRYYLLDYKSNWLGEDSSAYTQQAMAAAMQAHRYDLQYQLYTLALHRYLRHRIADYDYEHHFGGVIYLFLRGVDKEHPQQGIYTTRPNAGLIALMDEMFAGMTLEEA
In words: E. coli RecBCD inhibitors, dose response, counter-screen for AddAB inhibitor project, absorbance, V66 E. coli, mutant T4 phage (AID 492957). Type of test: functional, cell-based, Escherichia coli str. K-12 substr. MG1655.

Calls of active or inactive are those of the source.

The term AC50 denotes the concentration giving half of the maximal activity seen. `N#Cc1c(N)n(C2OC(CO)C(O)C2O)c2ncnc(N)c12` (configuration not stated): the AC50 in test [1] is 0.663 µM (active); in [2], < 0.26 µM (active); in test [3] it was 0.609 µM (active); in test [4] it was 2.86 µM (active); in test [5], 0.822 µM (active); at Paired box protein Pax-8, < 0.26 µM (active). Also, the AC50 in test [6] was 0.12 µM (active); in test [7] it was 8.58 µM (active).
As a reminder, the CC50 is the concentration giving 50% cytotoxicity. As usually defined, the IC50 is the concentration that gives 50% inhibition. Turning to `NC(=NOC(=O)c1ccc(Cl)cc1)c1ncc([N+](=O)[O-])s1`, the 50% cytotoxic concentration (CC50) in [8] was > 40 µM (active). Moreover, the IC50 in test [9] is 118 µM (inactive); in “cells”, 19.2 µM (active); at Exodeoxyribonuclease V it was > 119 µM (inactive).

Source of the values: ChEMBL document CHEMBL1201862, “PubChem BioAssay data set” (2004).
